In patent US20220323383A1, “SMALL-MOLECULAR ADJUVANTS AND IMPLEMENTATIONS THEREOF” (JAWAHARLAL NEHRU CENTRE FOR ADVANCED SCIENTIFIC RESEARCH, priority 2019, published 2022):

How the values were obtained:
Format in all cases: cell-based
human RBCs = assay: Haemolytic activity; details: concentration at which 50% of human blood cells are lysed; 1 h at 37° C.
Experimental: Erythrocytes were isolated from freshly drawn, heparanized human blood and re-suspended to 5 vol % in PBS (pH 7.4). In a 96-well microtiter plate, 150 μl of erythrocyte suspension was added to 50 μl of serially diluted compound. Two controls were made, one without compound and other with 50 μl of 1 vol % solution of Triton X-100. The plate was incubated for 1 h at 37° C. The plate was then centrifuged at 3,500 rpm for 5 min, 100 μl of the supernatant from each well was transferred to a fresh 96-well microtiter plate, and A540 was measured. Percentage of hemolysis was determined as (A−A0)/(Atotal−A0)×100, where A is the absorbance of the test well, A0 the absorbance of the negative controls (without compound), and Atotal the absorbance of 100% hemolysis wells (with Triton X-100), all at 540 nm.
Toxicity studies of the compounds were done on freshly drawn human RBCs. Toxicity of the compounds were defined by their HC50 values (Table 2), i.e. the concentration of compound at which 50% of the blood cells are lysed.

A. baumannii R674 [1] = assay: Individual antibacterial activity (MIC) of adjuvants; details: adjuvant alone; A. baumannii R674
Experimental: (§1) The combination efficacy with antibiotics from different classes and individual antibacterial activity of the synthesized adjuvants was evaluated against the above mentioned MDR and NDM-1 strains of Gram-negative bacteria. All the bacteria were grown in peptone. The bacterial samples were freeze dried and stored at −80° C. 3 μl of these stocks were added to 3 mL of peptone and the culture was grown for 6 h at 37° C. prior to the experiments.
(§2) All synthesized compounds were assayed for their antibacterial activity in combination with antibiotics in a modified chequerboard micro-dilution broth format. Stock solutions were made by serially diluting the compounds using autoclaved millipore water. The bacterial freeze dried stock samples were stored at −80° C. About 3 μL of these stocks were added to about 3 mL of the respective broth and the culture was grown for about 6 h at about 37° C. with prior to the experiments. This 6 h grown culture gives about 10^8 cfu/mL in case of A. baumannii R674, P. aeruginosa R590, E. coli R3336 and K. pneumoniae R3934 which were determined by spread plating method. This 6 h grown culture was diluted to give effective cell concentration of 10^5 cfu/mL, and then used for the chequerboard assay. Adjuvants and antibiotics were serially diluted in two-fold, in sterile millipore water. 25 μL of these serial dilutions of the antibiotics and 25 μL of compounds were added to the wells of 96 well plate followed by the addition of about 150 μL of bacterial solution (˜10^5 cfu/mL). The plates were then incubated at about 37° C., 150 rpm in the incubator and O.D at 600 nm was recorded at 24 h using TECAN (Infinite series, M200 pro) Plate Reader. The wells with similar OD as the media control contained the required concentration of the antibiotic and adjuvant for antibacterial efficacy. The potentiation ability of the adjuvants was determined by calculating the potentiation factor and the Fractional Inhibitory concentration (FIC) index. Fractional Inhibitory Concentration (FIC) is expressed as, FIC=[X]/MICX, where [X] is the lowest inhibitory concentration of antibiotic in the presence of the adjuvant. Whereas FIC index is expressed as, FICI=FICantibiotic+FICadjuvant. The values of FIC index give an insight about the nature of the combination. Potentiation factor which means fold-reduction in the MIC of the antibiotic, when used in combination with the adjuvant was also determined. Potentiation factor=[Minimum inhibitory concentration (MIC) of antibiotic in absence of adjuvant]/[MIC of antibiotic in presence of adjuvant]. […] The combination efficacies of adjuvants with various antibiotics are furnished in Table 1. It should be noted that various other resistant strains of bacteria (Gram-positive and Gram-negative) can be tested with a number of other antibiotics to check the potentiation capacity of the adjuvants.

P. aeruginosa R590 [2] = assay: as above; details: adjuvant alone; P. aeruginosa R590
Experimental: as §1, §2

A. baumannii R674 [3] = assay: Chequerboard combination efficacy of adjuvant with antibiotics
Experimental: (§3) All the solvents were of reagent grade, which were distilled and dried before its use. All the reagents were purchased from Sigma-Aldrich, Alfa-Aesar, S.D. Fine, Avra and Spectrochem, and were used without further purification. Analytical thin layer chromatography (TLC) was performed on E. Merck TLC plates pre-coated with silica gel 60 F254 and visualization was carried out using UV light and Iodine. Column chromatography was performed on silica gel (60-120 mesh) using different ratio of chloroform and methanol solvent system. Nuclear magnetic resonance spectra were recorded on Bruker (AV-400) 400 MHz spectrometer in deuterated solvents. Mass spectra were obtained using 6538-UHD Accurate mass Q-TOF LC-MS instrument. For optical density measurement during bacteriology experiments, Tecan Infinite Pro series M200 Microplate Reader was used. Bacterial strains, A. baumannii (R674), P. aeruginosa (R590), E. coli (R3336) and K. pneumoniae (R3934) were used for the studies.
as §1, §2

P. aeruginosa R590 [4] = assay: as above; details: P. aeruginosa R590
Experimental: as §3, §1, §2

Row | Compound | HC50 (human RBCs) [µg/mL] | MIC against clinical isolates of bacteria (A. baumannii R674 [1]) [µg/mL] | MIC against clinical isolates of bacteria (P. aeruginosa R590 [2]) [µg/mL] | FICI (A. baumannii R674 [3]; antibiotic Rifampicin) | MIC of antibiotic in presence of adjuvant (A. baumannii R674 [3]; antibiotic Rifampicin) [µg/mL] | Potentiation factor (A. baumannii R674 [3]; antibiotic Rifampicin) | FICI (A. baumannii R674 [3]; antibiotic Tetracycline) | MIC of antibiotic in presence of adjuvant (A. baumannii R674 [3]; antibiotic Tetracycline) [µg/mL] | Potentiation factor (A. baumannii R674 [3]; antibiotic Tetracycline) | FICI (P. aeruginosa R590 [4]; antibiotic Rifampicin) | MIC of antibiotic in presence of adjuvant (P. aeruginosa R590 [4]; antibiotic Rifampicin) [µg/mL] | Potentiation factor (P. aeruginosa R590 [4]; antibiotic Rifampicin) | FICI (P. aeruginosa R590 [4]; antibiotic Tetracycline) | MIC of antibiotic in presence of adjuvant (P. aeruginosa R590 [4]; antibiotic Tetracycline) [µg/mL] | Potentiation factor (P. aeruginosa R590 [4]; antibiotic Tetracycline)
1 | NCCCCCCN(CCCCCCN)C(=O)Cc1cccc2ccccc12 [Compound 10, N,N-bis-[(6-amino)hexyl] naphthyl ethanamide bistrifluoroacetate] | >1024 | >512 | >512 | <0.14 | 1 | 64 | <0.375 | 16 | 8 | <0.133 | 1 | 128 | <0.375 | 32 | 8
2 | NCCCCCCN(CCCCCCN)C(=O)CC(c1ccccc1)c1ccccc1.O=C(O)C(F)(F)F.O=C(O)C(F)(F)F [Compound 11, N,N-bis-[(6-amino)hexyl] 3,3-diphenyl propanamide bistrifluoroacetate] | >1024 | 128 | 256 | 0.1328 | 0.5 | 128 | 1 | 64 | 2 | 0.07 | 1 |  | 0.375 | 32 | 8
3 | NCCCCCCN(CCCCCCN)CC(=O)NC1C2CC3CC(C2)CC1C3.O=C(O)C(F)(F)F.O=C(O)C(F)(F)F.O=C(O)C(F)(F)F (centres unmarked) [Compound 12, N-(adamantan-2-yl)-2-[N′,N′-{bis-(6-amino)hexyl}amino] ethanamide tristrifluoroacetate] | >1024 | 64 | 64 | <0.252 | <0.125 | >512 | 0.625 | 16 | 8 | 0.251 | 0.125 | 1024 | 0.75 | 64 | 4
